{
  "source": "paper PMC12211128",
  "about": "“Safety, tolerability, pharmacokinetic and pharmacodynamic effects of the muscarinic M1 positive allosteric modulator VU0467319 for Alzheimer’s disease: a single ascending-dose study in healthy participants” (Alzheimer's Research & Therapy, 2025)",
  "origin": "cited, not measured here",
  "key": {"M1 mAChR": {"tested_on": "M1 mAChR", "conditions": "cited from earlier work"}, "Parkinson's disease": {"tested_on": "Parkinson's disease", "design": "method as in PMID 39761063", "conditions": "cited from earlier work"}},
  "data": [
    {"compound": "COc1ccc(Cn2cc(C(=O)O)c(=O)c3ccccc32)cc1", "note": "[BQCA, benzyl quinolone carboxylic acid, reference compound]", "values": [
      {"measurement": "agonist and PAM properties at M1", "setting": "M1 mAChR", "result": "both agonist and PAM properties"}
    ]},
    {"compound": "Cc1c(Cc2ccc(-n3cccn3)cc2)cc2c(c1F)CN([C@H]1COCC[C@@H]1O)C2=O", "note": "[TAK-071]", "values": [
      {"measurement": "cognitive performance in Parkinson's disease", "setting": "Parkinson's disease", "result": "produced improvement in cognitive performance"}
    ]}
  ]
}
